Laboratory results as given in the NIST ThermoML archive (doi:10.1016/j.jct.2016.11.010).
± gives the expanded uncertainty stated by the source.

Test: mn = molality of the nth substance listed, in mol/kg
Conditions: 100 kPa, Liquid; for speed of sound: Frequency=3 MHz, Sing-around technique in a fixed-path interferometer; for mass density: Vibrating tube method

O=C([O-])CC(O)(CC(=O)[O-])C(=O)[O-].[Li+].[Li+].[Li+] [trilithium citrate] + O
Conditions | mass density, 288.15 K [kg/m3] | mass density, 298.15 K [kg/m3] | mass density, 308.15 K [kg/m3] | mass density, 318.15 K [kg/m3] | speed of sound, 288.15 K [m/s] | speed of sound, 298.15 K [m/s] | speed of sound, 308.15 K [m/s] | speed of sound, 318.15 K [m/s]
m1 = 0.2 | 1027.57 ± 0.36 | 1025.15 ± 0.36 | 1021.94 ± 0.35 | 1017.98 ± 0.35 | 1509.4 ± 4.2 | 1536 ± 4.2 | 1556.2 ± 4.2 | 1570.5 ± 4.2
m1 = 0.4 | 1052.95 ± 0.37 | 1050.23 ± 0.37 | 1046.82 ± 0.36 | 1042.77 ± 0.36 | 1548.6 ± 4.2 | 1572.7 ± 4.2 | 1590.4 ± 4.2 | 1602.2 ± 4.2
m1 = 0.6 | 1078.48 ± 0.38 | 1075.51 ± 0.38 | 1071.94 ± 0.37 | 1067.78 ± 0.37 | 1589.2 ± 4.2 | 1610.3 ± 4.2 | 1626 ± 4.2 | 1636.1 ± 4.2
